Patent publication US6494824B1, “Medical, radiotherapy source vial” (priority 1998, dated 2002)

Assays:
[1] = system: balloon-injured coronary arteries (neointimal formation); experiment: Angioplasty balloon injury of porcine coronary arteries, xenon-133 radiogas balloon irradiation, morphometry after two weeks; type: in vivo; conditions: for IA (intimal area): two weeks after treatment, control 1.04 ± 0.20; for IA/FL (intimal area corrected for medical fracture length): control 0.55 ± 0.06
Experimental: Prior art systems can falter with regards to dose homogeneity, optimal efficacy, radiation safety restrictions, patient handling, and radionuclide availability. The present medical radiation treatment system was developed and tested for irradiation with historically safe xenon-133 inert radiogas. In order to determine the efficacy of xenon-133 radiogas to inhibit neointimal formation and subsequent luminal restenosis, angioplasty balloon injury was performed in the coronary arteries of 17 juvenile porcine subjects. Following balloon injury of the coronary arteries of these porcine subjects, 3.0 to 3.5 mm balloons of 30 to 40 mm lengths were positioned to cover and overlap the injured vessel segment. A negative pressure was obtained in the radiocatheter prior to placement. Xenon-133 activity of 250-300 mCi (in 2.0-2.5 cc's) was injected to fill the balloon segment, uniformly abutting the lumen wall. A dose of either 15 Gy or 30 Gy was prescribed and delivered to a target tissue depth of 0.25 mm from the expanded balloon surface. The dwell time during inflation was 2±0.5 minutes (avg.). Prior in vitro dosimetry trials were performed to obtain reference micro-dosimetry results. Summary data analysis including reference tables and graphics, were performed and applied for delivery ranges as described above. This was performed using multiple trials with Cook GRII® balloon catheters of various coronary sizes with different quantities of xenon-133 (millicuries), exposure time (min.), and volumes (cc). Customized solid water phantoms, layered Gafchromic film, laser/light densitometry readings, and referenced dosimetry graphics were standardly applied to obtain these referenced measurements.
Localization of the radiogas filled balloon was verified by Gamma Camera and fluoroscopic imaging. The radiation exposure measured 100 mR/h at the chest wall and 5 mR/h immediately bedside. Two weeks following treatment, the animals were harvested, the arteries perfusion fixed, stained, and morphometrically analyzed. The intimal area (IA) was compared between the irradiated and control arteries.

[2] = Radiation exposure measured during radiogas balloon treatment; type: in vivo, porcine; conditions: 250-300 mCi in balloon
Experimental: Prior art systems can falter with regards to dose homogeneity, optimal efficacy, radiation safety restrictions, patient handling, and radionuclide availability. The present medical radiation treatment system was developed and tested for irradiation with historically safe xenon-133 inert radiogas. In order to determine the efficacy of xenon-133 radiogas to inhibit neointimal formation and subsequent luminal restenosis, angioplasty balloon injury was performed in the coronary arteries of 17 juvenile porcine subjects. […] This was performed using multiple trials with Cook GRII® balloon catheters of various coronary sizes with different quantities of xenon-133 (millicuries), exposure time (min.), and volumes (cc). Customized solid water phantoms, layered Gafchromic film, laser/light densitometry readings, and referenced dosimetry graphics were standardly applied to obtain these referenced measurements.
Localization of the radiogas filled balloon was verified by Gamma Camera and fluoroscopic imaging. The radiation exposure measured 100 mR/h at the chest wall and 5 mR/h immediately bedside. Two weeks following treatment, the animals were harvested, the arteries perfusion fixed, stained, and morphometrically analyzed. […]

In the case of `[133Xe]` [Xe-133, xenon-133], the “% absolute ratio reduction (IA/FL vs control)” value ([1]; 15 Gy) is reported as 71%, the “IA (intimal area)” value ([1]; 15 Gy at 0.25 mm tissue depth, n = 9) is reported as 0.34 ± 0.17 mm^2 and the “share of group showing IA (mm^2) of ≦0.06” value ([1]; 15 Gy group) is reported as 66%. For the same molecule, the “IA/FL (intimal area corrected for medical fracture length)” value ([1]; 15 Gy, n = 9) was 0.16 ± 0.08, the “% absolute ratio reduction (IA/FL vs control)” value ([1]; 30 Gy) was 45% and the “IA (intimal area)” value ([1]; 30 Gy at 0.25 mm tissue depth, n = 8) was 0.38 ± 0.18 mm^2. For the same molecule, the “share of group showing IA (mm^2) of ≦0.06” value ([1]; 30 Gy group) was 44%, the thrombosis ([1]; 30 Gy group) was “slight trend toward increased thrombosis” and the “IA/FL (intimal area corrected for medical fracture length)” value ([1]; 30 Gy, n = 8) was 0.32 ± 0.12. For the same molecule, the “neointimal formation (conclusion from harvested vessels)” value ([1]; porcine model, radiogas balloon catheter) was “effective in markedly reducing neointimal formation”, the radiation exposure ([2]; at the chest wall) was 100 mR/h and the radiation exposure ([2]; immediately bedside) was 5 mR/h.
